{"source": "paper PMC10822168", "about": "“Development of potent isoflavone-based formyl peptide receptor 1 (FPR1) antagonists and their effects in gastric cancer cell models” (European journal of medicinal chemistry, 2023)", "assay_type_in_all_cases": "cell-based, human", "key": {"VEGFA [1]": {"tested_on": "VEGFA", "test": "ELISA of VEGFA secretion in culture medium of NCl–N87 cells", "settings": "NCl–N87, fMLF 10 nM, 48 h", "method": "(§1) Secretion of VEGFA and angiopoietin 2 (Ang2) in the culture medium of NCl–N87 and AGS cells was assessed after 48 h of drug treatment using ELISA methods (Fig. 10). […] Once again, the effects were more pronounced in NCl–N87 cells than in AGS, and the effect of 25a was more pronounced as compared to 24a. The co-administration of fMLF (10 nM) partially counteracted the effects.\n(§2) Fig. 10. Effect of 24a and 25a on the secretion of VGFA (A) and Ang2 (B) in NCl–N87 and AGS cell lines. The ELISA assays were assessed on cells after 48 h of drug treatment with fMLF (10 nM) and 24a or 25a (1, 5 μM) administrated alone or combining the lowest dose of 24a or 25a with fMLF. The concentration of VEGFA (A) or Ang2 (B) was determined in the medium and normalized for the cell number. The values ± SD, obtained from three independent experiments expressed as pg/mL, were shown in the relative graphs. Statistical analysis was assessed by comparing the values obtained using a single drug treatment to those of corresponding untreated cells and the combined treatments to those of the single treatments. **p < 0.001; ***p < 0.0002; ****p < 0.0001. […]"}, "VEGFA mRNA": {"tested_on": "VEGFA mRNA", "test": "Real-time PCR of VEGFA mRNA expression in NCl–N87 and AGS cells", "settings": "24 h, fMLF 10 nM, antagonists 1 or 2 μM, normalized to GAPDH, untreated = 1", "excerpt": "(§3) It has been reported that FPR1 can exert a tumor suppressor function in human GC by inhibiting angiogenesis and that silencing of the receptor increases the constitutive proangiogenic potential of GC cells. Therefore, we assessed the effect of 24a and 25a on the mRNA expression level and secretion of the proangiogenic factors, the vascular growth factor A (VEGFA), and the angiopoietin 2. […] These effects were more pronounced in NCl–N87 cells and resulted more strongly for 25a than 24a. The values obtained after each treatment were normalized to the expression of GAPDH and compared to the reference value of the two genes in untreated cells, which were set equal to 1 (Fig. 9).\n(§4) Fig. 9. Effect of 24a and 25a on mRNA expression of VGFA and ANGPT2 in NCl–N87 and AGS cell lines. Real-time PCR experiments in NCl–N87 and AGS cells with specific primers for VEGFA and ANGPT2 genes. The mRNA expression was normalized on the GAPDH housekeeping gene. Expression analysis was performed after treatment with fMLF (10 nM) and 24a or 25a (1, 2, 5 μM) administrated alone or combining the lowest dose of 24a or 25a with fMLF. All expression values were calculated against the value of untreated PTX-sensitive cells, set equal to 1. Statistical analysis was assessed by comparing the values obtained using single drug treatment to those of corresponding untreated cells and the combined treatments to those of single treatments. The values of untreated PTX-resistant cells were compared with those of untreated PTX-sensitive ones. Data were mean ± SD (n = 3). *p < 0.05, **p < 0.001, ***p < 0.0002, ****p < 0.0001.\n(§5) Total RNA was extracted from FPR1 antagonist-treated NCl–N87 and AGS treated cells using the Qiagen RNeasy Mini Kit (Qiagen, Hilden, Germany) following the manufacturer’s instructions. Samples were retro-transcribed using the iScript Advanced cDNA Synthesis Kit (Bio-Rad Laboratories, California, USA). Real-Time-PCRs analyzed cDNA samples for the evaluation of VEGFA and ANGPT2 expression. […] Relative quantification was performed using the ddCT method."}, "angiopoietin 2 (Ang2) [2]": {"tested_on": "angiopoietin 2 (Ang2)", "test": "ELISA of angiopoietin 2 secretion in culture medium of AGS cells", "settings": "fMLF 10 nM, 48 h", "method": "as §1, §2"}, "NCl–N87 cells": {"tested_on": "NCl–N87 cells", "test": "Scratch migration assay in NCl–N87 cells", "settings": "NCl–N87, fMLF 10 nM, 24 h incubation", "excerpt": "The results are representative of three independent experiments."}, "AGS cells": {"tested_on": "AGS cells", "test": "Scratch migration assay in AGS cells", "settings": "fMLF 10 nM, 24 h incubation", "method": "The effect of FPR1 blockade on cell migration was assessed using the scratch assay, an easy and well-developed method to measure cell migration in vitro. […] Conversely, 24a and 25a reduced the migration rate in a dose-dependent manner. The effect was more pronounced in NCl–N87 as compared to AGS cells. […] The effect was FPR1-mediated, as it was counterbalanced by co-administration of the agonist fMLF (10 nM).\nFig. 8. Effect of 24a and 25a on cell migration in NCl–N87 and AGS cell lines. Scratch assay assessed on cells treated with fMLF (10 nM) and 24a or 25a (1, 1.5, 2 μM) administrated alone or combining the lowest dose of 24a or 25a with fMLF. The cells were microscopically analyzed at the time of the scratch (T0) and after 24 h (T1). The relative migration rate was calculated by setting the percentage of migration of the control cells at time T1 equal to 1 and comparing the migration percentage of the cells after each drug treatment to this value. Representative original photographs (panel A) and quantitative analysis (panel B) of the cell-free scratch path ares. […] Statistical analysis was assessed by comparing the values obtained using a single drug treatment to those of corresponding untreated cells and the combined treatments to those of the single treatments, *p < 0.05, **p < 0.001, ****p < 0.0001. […]"}, "angiopoietin 2 (Ang2) [3]": {"tested_on": "angiopoietin 2 (Ang2)", "test": "ELISA of angiopoietin 2 secretion in culture medium of NCl–N87 cells", "settings": "NCl–N87, fMLF 10 nM, 48 h", "method": "as §1, §2"}, "VEGFA [4]": {"tested_on": "VEGFA", "test": "ELISA of VEGFA secretion in culture medium of AGS cells", "settings": "fMLF 10 nM, 48 h", "method": "as §1, §2"}, "ANGPT2 mRNA": {"tested_on": "ANGPT2 mRNA", "test": "Real-time PCR of ANGPT2 mRNA expression in NCl–N87 and AGS cells", "settings": "24 h, fMLF 10 nM, antagonists 1 or 2 μM, normalized to GAPDH, untreated = 1", "excerpt": "as §3, §4, §5"}}}
{"substance": "N-formyl-methionyl-leucyl-phenylalanine [fMLF]", "values": [{"measurement": "reduction in the secretion of VEGFA", "setting": "VEGFA [1]", "result": "approximately 40%"}, {"measurement": "VEGFA mRNA expression", "setting": "VEGFA mRNA", "result": "reduced expression"}, {"measurement": "reduction in the secretion of Ang2", "setting": "angiopoietin 2 (Ang2) [2]", "result": "~23", "unit": "%"}, {"measurement": "increase in cell mobility", "setting": "NCl–N87 cells", "result": 41, "unit": "%"}, {"measurement": "increase in cell mobility", "setting": "AGS cells", "result": 32, "unit": "%"}, {"measurement": "reduction in the secretion of Ang2", "setting": "angiopoietin 2 (Ang2) [3]", "result": "~22", "unit": "%"}, {"measurement": "reduction in the secretion of VEGFA", "setting": "VEGFA [4]", "result": "~35", "unit": "%"}, {"measurement": "angiopoietin 2 (ANGPT2) mRNA expression", "setting": "ANGPT2 mRNA", "result": "reduced expression"}]}
